According to paper PMC7442682 (Chemical biology & drug design, 2020):

Legend:
[1] = target: D2 receptor (Homo sapiens, UniProt P14416); test: PDSP radioligand binding, dopamine D2 receptor
[2] = target: D1 receptor (Homo sapiens, UniProt P21728); test: PDSP radioligand binding, dopamine D1 receptor
[3] = target: 5-HT2A receptor (Homo sapiens, UniProt P28223); test: PDSP radioligand binding, 5-HT2A receptor
[4] = target: T1, 5-HT1A receptor (Homo sapiens, UniProt P08908); test: PDSP radioligand binding, 5-HT1A receptor
T1 sequence (P08908 1-422): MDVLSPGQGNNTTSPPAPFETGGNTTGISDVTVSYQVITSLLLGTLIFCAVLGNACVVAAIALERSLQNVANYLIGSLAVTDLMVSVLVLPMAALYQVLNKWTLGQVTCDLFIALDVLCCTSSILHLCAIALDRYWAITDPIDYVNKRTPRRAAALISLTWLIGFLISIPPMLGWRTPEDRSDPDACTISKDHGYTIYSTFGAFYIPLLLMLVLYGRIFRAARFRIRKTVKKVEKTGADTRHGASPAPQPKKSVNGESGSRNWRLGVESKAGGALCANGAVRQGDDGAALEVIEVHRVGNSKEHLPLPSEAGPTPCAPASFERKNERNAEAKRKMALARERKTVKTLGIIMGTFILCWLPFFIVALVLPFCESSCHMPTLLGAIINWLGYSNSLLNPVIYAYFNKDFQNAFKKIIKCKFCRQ

[5] = target: T2, α2B adrenergic receptor (Homo sapiens, UniProt P18089); test: PDSP radioligand binding, α2B adrenergic receptor
T2 sequence (P18089 1-450): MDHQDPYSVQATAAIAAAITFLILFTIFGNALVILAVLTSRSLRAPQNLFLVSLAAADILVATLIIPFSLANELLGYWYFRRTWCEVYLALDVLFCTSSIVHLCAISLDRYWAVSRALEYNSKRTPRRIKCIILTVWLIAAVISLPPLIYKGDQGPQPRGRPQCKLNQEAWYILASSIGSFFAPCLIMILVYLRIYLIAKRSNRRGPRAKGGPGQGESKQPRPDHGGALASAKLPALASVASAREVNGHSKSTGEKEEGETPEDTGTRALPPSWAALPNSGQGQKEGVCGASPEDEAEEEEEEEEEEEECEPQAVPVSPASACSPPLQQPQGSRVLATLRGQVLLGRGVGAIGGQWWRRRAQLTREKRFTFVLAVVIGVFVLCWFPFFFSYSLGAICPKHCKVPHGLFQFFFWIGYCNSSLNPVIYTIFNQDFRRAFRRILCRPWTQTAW

[6] = target: 5-HT6 receptor (Homo sapiens, UniProt P50406); test: PDSP radioligand binding, 5-HT6 receptor; conditions: for 5-HT6 selectivity versus the other receptors tested: versus all other dopamine, serotonin and adrenergic receptors tested
Chain of 5-HT6 receptor (P50406 whole entry): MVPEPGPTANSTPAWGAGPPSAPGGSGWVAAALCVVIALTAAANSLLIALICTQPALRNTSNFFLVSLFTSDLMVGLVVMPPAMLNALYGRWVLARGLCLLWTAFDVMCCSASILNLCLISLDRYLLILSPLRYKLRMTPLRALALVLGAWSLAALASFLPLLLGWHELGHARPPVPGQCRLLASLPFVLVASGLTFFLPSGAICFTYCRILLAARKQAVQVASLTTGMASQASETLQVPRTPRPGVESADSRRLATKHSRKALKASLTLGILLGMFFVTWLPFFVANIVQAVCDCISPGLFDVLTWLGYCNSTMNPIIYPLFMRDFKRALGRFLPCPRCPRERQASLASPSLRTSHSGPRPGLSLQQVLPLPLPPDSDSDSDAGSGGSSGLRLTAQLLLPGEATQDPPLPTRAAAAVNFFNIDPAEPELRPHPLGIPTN

[7] = target: D3 receptor (Homo sapiens, UniProt P35462); test: PDSP radioligand binding, dopamine D3 receptor
Chain of D3 receptor (P35462 whole entry): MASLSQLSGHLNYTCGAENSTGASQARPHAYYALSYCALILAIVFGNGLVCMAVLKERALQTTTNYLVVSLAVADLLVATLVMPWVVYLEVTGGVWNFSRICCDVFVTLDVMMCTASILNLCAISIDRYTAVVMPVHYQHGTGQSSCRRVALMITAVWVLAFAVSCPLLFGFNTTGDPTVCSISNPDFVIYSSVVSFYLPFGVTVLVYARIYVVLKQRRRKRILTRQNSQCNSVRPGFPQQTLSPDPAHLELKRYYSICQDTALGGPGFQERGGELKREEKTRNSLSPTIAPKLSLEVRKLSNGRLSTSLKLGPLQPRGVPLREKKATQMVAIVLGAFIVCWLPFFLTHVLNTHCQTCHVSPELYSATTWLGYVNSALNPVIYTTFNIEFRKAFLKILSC

[8] = target: T3, α1A adrenergic receptor (Homo sapiens, UniProt P35348); test: PDSP radioligand binding, α1A adrenergic receptor
T3 sequence (P35348 1-466): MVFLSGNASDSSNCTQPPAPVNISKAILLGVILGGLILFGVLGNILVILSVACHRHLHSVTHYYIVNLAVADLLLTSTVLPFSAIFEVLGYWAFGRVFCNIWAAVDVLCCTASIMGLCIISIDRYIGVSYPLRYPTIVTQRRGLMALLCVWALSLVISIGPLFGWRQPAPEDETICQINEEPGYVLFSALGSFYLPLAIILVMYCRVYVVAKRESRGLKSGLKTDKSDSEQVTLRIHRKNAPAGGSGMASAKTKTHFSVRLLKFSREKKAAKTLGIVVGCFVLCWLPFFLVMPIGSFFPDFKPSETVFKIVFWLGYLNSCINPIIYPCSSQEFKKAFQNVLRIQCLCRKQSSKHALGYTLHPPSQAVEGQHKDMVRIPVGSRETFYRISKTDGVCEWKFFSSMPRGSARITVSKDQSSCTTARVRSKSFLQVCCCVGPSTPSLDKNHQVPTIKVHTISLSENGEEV

[9] = target: 5-HT1B receptor (Homo sapiens, UniProt P28222); test: PDSP radioligand binding, 5-HT1B receptor
Chain of 5-HT1B receptor (P28222 whole entry): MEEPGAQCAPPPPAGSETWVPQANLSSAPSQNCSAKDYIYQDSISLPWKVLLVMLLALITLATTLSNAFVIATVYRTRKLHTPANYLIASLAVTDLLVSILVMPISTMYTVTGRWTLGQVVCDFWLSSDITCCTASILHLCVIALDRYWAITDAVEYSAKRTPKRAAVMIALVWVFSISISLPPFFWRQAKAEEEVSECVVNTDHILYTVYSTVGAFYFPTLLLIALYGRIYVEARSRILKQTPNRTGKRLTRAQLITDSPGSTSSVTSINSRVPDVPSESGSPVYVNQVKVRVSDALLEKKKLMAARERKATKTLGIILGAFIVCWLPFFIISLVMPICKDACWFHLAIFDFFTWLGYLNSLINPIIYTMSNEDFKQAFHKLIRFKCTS

[10] = target: T4, D4 receptor (Homo sapiens, UniProt P21917); test: PDSP radioligand binding, dopamine D4 receptor; conditions: read-out: Ki D4
T4 sequence (P21917 1-419): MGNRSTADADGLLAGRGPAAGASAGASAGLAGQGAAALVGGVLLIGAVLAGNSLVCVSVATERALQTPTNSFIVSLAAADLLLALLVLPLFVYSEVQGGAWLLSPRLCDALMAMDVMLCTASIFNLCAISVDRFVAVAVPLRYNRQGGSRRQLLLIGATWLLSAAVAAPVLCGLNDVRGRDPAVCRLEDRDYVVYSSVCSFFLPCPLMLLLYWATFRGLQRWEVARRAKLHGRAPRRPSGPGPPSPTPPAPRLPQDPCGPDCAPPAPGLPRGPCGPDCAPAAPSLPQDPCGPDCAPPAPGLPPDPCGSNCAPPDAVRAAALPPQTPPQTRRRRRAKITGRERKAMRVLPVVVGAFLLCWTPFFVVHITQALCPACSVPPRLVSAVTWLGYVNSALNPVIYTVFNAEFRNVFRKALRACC

[11] = target: 5-HT5A receptor (Homo sapiens, UniProt P47898); test: PDSP radioligand binding, 5-HT5A receptor
Chain of 5-HT5A receptor (P47898 whole entry): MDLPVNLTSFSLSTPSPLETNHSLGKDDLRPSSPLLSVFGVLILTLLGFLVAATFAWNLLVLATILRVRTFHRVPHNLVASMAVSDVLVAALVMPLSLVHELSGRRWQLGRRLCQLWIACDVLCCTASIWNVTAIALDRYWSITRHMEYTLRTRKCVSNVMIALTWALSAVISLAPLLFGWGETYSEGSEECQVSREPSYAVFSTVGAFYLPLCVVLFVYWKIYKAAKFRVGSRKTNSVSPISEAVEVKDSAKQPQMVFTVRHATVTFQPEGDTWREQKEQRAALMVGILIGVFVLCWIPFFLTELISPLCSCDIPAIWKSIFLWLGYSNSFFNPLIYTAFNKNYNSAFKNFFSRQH

[12] = target: D5 receptor (Homo sapiens, UniProt P21918); test: PDSP radioligand binding, dopamine D5 receptor; conditions: read-out: Ki D5
Chain of D5 receptor (P21918 whole entry): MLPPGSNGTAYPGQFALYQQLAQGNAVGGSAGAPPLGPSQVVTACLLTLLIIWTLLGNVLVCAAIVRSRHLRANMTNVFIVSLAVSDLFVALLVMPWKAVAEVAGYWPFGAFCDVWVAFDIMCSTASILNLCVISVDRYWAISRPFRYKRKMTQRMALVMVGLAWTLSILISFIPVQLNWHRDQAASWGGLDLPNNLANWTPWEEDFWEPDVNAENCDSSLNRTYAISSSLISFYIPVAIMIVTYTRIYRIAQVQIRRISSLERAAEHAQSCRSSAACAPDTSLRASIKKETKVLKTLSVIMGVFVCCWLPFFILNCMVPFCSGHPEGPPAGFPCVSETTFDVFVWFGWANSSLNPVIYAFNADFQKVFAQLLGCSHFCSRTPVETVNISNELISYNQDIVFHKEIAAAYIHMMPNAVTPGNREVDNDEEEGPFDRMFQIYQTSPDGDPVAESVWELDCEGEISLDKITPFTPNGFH

[13] = target: T5, α2A adrenergic receptor (Homo sapiens, UniProt P08913); test: PDSP radioligand binding, α2A adrenergic receptor
T5 sequence (P08913 1-465): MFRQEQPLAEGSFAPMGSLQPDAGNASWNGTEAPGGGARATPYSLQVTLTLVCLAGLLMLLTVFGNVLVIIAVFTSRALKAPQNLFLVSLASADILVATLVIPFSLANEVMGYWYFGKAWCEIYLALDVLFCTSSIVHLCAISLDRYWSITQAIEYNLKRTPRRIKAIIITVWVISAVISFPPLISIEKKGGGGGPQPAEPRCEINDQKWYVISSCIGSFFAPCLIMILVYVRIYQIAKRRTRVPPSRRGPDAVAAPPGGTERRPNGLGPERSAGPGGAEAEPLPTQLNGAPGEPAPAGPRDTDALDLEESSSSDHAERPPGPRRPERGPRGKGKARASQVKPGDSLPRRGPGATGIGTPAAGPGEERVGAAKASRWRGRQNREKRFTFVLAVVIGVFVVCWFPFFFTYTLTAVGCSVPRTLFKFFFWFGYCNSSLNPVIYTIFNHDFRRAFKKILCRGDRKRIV

[14] = target: T6, α2C adrenergic receptor (Homo sapiens, UniProt P18825); test: PDSP radioligand binding, α2C adrenergic receptor
T6 sequence (P18825 1-462): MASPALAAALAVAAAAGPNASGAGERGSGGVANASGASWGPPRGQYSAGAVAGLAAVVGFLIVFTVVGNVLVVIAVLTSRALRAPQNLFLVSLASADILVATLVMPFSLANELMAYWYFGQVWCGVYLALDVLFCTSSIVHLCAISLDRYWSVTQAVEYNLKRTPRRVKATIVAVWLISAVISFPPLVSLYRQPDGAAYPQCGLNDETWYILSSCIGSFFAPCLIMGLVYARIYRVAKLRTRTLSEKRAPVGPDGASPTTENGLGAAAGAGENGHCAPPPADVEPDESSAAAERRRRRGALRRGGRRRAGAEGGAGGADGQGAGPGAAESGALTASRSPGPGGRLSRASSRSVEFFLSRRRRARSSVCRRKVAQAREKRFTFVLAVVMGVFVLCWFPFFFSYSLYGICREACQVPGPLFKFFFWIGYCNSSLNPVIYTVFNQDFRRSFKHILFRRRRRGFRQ

[15] = target: T7, α1B adrenergic receptor (Homo sapiens, UniProt P35368); test: PDSP radioligand binding, α1B adrenergic receptor; conditions: for inhibition at 10 µM: read-out: Ki α1B
T7 sequence (P35368 1-520): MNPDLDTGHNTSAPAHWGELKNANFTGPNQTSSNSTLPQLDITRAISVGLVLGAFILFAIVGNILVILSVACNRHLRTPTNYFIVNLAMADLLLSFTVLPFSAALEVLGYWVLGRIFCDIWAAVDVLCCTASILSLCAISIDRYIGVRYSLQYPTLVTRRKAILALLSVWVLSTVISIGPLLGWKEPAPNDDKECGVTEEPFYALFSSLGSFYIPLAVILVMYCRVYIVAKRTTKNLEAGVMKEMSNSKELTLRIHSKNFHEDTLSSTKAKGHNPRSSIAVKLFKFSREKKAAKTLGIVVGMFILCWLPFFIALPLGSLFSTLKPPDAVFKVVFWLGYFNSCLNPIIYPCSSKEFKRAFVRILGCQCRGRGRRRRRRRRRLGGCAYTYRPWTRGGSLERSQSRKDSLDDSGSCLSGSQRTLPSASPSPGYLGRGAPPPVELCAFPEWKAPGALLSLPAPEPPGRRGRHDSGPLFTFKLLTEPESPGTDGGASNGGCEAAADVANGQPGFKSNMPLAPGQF

Chain of D2 receptor (P14416 whole entry): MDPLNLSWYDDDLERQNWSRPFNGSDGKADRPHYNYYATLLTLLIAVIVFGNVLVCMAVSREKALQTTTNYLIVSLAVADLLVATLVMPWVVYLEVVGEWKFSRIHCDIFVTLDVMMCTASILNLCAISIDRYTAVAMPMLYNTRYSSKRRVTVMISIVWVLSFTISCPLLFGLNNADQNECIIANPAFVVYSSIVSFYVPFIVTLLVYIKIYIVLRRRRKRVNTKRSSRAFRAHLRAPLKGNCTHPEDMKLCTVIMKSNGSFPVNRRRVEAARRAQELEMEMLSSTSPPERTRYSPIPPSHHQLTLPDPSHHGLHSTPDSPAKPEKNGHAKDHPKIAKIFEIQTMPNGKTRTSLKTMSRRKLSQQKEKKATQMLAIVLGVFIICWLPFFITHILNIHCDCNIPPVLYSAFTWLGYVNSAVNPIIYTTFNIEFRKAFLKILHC
Chain of D1 receptor (P21728 whole entry): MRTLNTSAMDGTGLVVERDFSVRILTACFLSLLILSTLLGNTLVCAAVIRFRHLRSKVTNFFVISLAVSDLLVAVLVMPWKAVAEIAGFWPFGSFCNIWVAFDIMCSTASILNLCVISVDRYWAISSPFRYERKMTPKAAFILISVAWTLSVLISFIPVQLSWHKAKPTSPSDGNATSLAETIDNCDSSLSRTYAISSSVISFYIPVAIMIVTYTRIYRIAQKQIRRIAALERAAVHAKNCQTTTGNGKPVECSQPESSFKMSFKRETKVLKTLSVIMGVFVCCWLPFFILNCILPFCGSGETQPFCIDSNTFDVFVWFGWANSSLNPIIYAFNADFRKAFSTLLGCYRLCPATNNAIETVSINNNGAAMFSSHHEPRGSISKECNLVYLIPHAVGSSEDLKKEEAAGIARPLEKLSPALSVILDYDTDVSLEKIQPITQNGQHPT
Chain of 5-HT2A receptor (P28223 whole entry): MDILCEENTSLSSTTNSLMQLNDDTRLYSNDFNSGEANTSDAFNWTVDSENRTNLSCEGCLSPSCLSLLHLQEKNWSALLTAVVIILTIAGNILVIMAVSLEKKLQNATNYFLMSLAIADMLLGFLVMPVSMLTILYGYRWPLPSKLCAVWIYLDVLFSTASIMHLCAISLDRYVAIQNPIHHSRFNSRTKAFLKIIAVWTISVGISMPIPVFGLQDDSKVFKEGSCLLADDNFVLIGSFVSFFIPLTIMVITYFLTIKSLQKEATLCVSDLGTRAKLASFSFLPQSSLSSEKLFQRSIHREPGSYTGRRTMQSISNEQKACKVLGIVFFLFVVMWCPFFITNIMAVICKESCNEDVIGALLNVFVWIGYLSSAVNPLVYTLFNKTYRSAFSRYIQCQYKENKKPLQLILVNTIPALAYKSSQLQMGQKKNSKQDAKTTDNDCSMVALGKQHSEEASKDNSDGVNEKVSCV

Structure (SMILES) | Ki [1] [nM] | Ki [2] [nM] | Ki [3] [nM] | Ki [6] [nM] | 5-HT6 selectivity versus the other receptors tested [6] | Ki [7] [nM] | Ki [8] [nM] | inhibition at 10 µM [10] [%] | Ki [11] [nM] | inhibition at 10 µM [12] [%] | Ki [13] [nM] | Ki [14] [nM] | Ki [15] [nM] | Ki [4] [nM] | Ki [5] [nM] | Ki [9] [nM] | inhibition at 10 µM [15] [%] | also measured
COc1cc2c3c(c1OC)-c1ccccc1C3CN(C)CC2 (stereo not shown) [Compound 12, 6,7-dimethoxy-2-methyl-2,3,4,11b-tetrahydro-1H-fluoreno[9,1-cd]azepine] | 636 | 2460 | 811 | 5 | at least 15 fold | 79 | 2860 | < 10 | 286 | < 10 | 1170 | 472 | 5870 |  |  |  |  | inhibition at 10 µM ([4]; read-out: Ki 5-HT1A): < 10%; inhibition at 10 µM ([5]; read-out: Ki α2B): < 10%; inhibition at 10 µM ([9]; read-out: Ki 5-HT1B): < 10%
COc1cc2c3c(c1OC)-c1ccccc1C3CNCC2 (stereo not shown) [Compound 10, 6,7-dimethoxy-2,3,4,11b-tetrahydro-1H-fluoreno[9,1-cd]azepine] | 780 |  | 1680 | 5 | at least 15 fold | 415 | 545 | < 10 | 578 | < 10 | 1600 | 774 | 2590 | 110 | 1120 | 255 |  | inhibition at 10 µM ([2]; read-out: Ki D1): < 10%
Oc1cc2c3c(c1O)-c1ccccc1C3CNCC2 (stereo not shown) [Compound 11, 2,3,4,11b-tetrahydro-1H-fluoreno[9,1-cd]azepine-6,7-diol] |  | 8820 | 1560 | 38 |  | 2920 | 3200 | < 10 | 244 | < 10 | 2590 | 1110 |  | 151 | 2200 | 451 | < 10 | 
CN1CCc2cc(O)c(O)c3c2C(C1)c1ccccc1-3 (stereo not shown) [Compound 13, 2-methyl-2,3,4,11b-tetrahydro-1H-fluoreno[9,1-cd]azepine-6,7-diol] |  | 865 | 352 | 123 |  |  | > 10000 | < 10 | 363 | < 10 |  | 1960 |  | 393 | 5820 | 1030 | < 10 | inhibition at 10 µM ([1]; read-out: Ki D2): < 10%; inhibition at 10 µM ([7]; read-out: Ki D3): < 10%; inhibition at 10 µM ([13]; read-out: Ki α2A): < 10%
